Assay results: ChEMBL document CHEMBL4482319, “Targeting cyb5r3” (2016)
Calls of active or inactive are those of the source. The rule behind the calls is not given here.

What was measured:
[1] = target: T1, NADH-cytochrome b5 reductase 3 (Rattus norvegicus) (UniProt P20070); experiment: Inhibition of Cyb5R3 in rat aortic VSMs assessed as reduction in decrease in sGC protein by Western blot analysis; conditions: concentration not given here
T1 sequence (whole entry): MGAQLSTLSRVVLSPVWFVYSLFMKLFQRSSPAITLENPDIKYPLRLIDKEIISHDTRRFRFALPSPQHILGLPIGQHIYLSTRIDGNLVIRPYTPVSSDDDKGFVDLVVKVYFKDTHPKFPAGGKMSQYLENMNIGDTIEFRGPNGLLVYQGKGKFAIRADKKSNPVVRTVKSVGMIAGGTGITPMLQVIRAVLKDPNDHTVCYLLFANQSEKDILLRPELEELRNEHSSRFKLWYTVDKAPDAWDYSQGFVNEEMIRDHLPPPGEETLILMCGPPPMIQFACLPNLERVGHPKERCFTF

[2] = target: T1, NADH-cytochrome b5 reductase 3 (Rattus norvegicus); experiment: Inhibition of Cyb5R3 in rat aortic VSMs assessed as reduction in decrease in basal cGMP levels
[3] = target: T1, NADH-cytochrome b5 reductase 3 (Rattus norvegicus); experiment: Inhibition of Cyb5R3 in DETA NONOate-stimulated rat aortic VSMs assessed as reduction in NO-induced cGMP production in presence of sGC activator Bay 58-2667
[4] = target: T1, NADH-cytochrome b5 reductase 3 (Rattus norvegicus); experiment: Inhibition of Cyb5R3 in rat thoracodorsal arteries assessed as inhibition of DETA NONOate-induced response incubated for 24 hrs by pressure myography
[5] = target: T1, NADH-cytochrome b5 reductase 3 (Rattus norvegicus); experiment: Inhibition of Cyb5R3 in rat thoracodorsal arteries assessed as inhibition of DETA NONOate-induced response incubated for 24 hrs in presence of sGC activator Bay 58-2667 by pressure myography
Mus musculus [6] = experiment: Induction of hypertension in C57B1/6 mouse assessed as increase in mean arterial pressure at 10 mg/kg/day dosed via osmotic mini pumps for 14 days; type: functional, organism-based
Mus musculus [7] = experiment: Induction of hypertension in C57B1/6 mouse assessed as increase in systolic pressure at 10 mg/kg/day dosed via osmotic mini pumps for 14 days; type: functional, organism-based
Mus musculus [8] = experiment: Induction of hypertension in C57B1/6 mouse assessed as increase in diastolic pressure at 10 mg/kg/day dosed via osmotic mini pumps for 14 days; type: functional, organism-based
[9] = target: T2, NADH-cytochrome b5 reductase (Homo sapiens) (UniProt P00387); experiment: Inhibition of Cyb5R3 (unknown origin) expressed in HEK293 cells at 21.86 uM incubated for 24 hrs in presence of potassium ferricyanide and NADH by spectrophotometric assay; type: cell-based
T2 sequence (whole entry): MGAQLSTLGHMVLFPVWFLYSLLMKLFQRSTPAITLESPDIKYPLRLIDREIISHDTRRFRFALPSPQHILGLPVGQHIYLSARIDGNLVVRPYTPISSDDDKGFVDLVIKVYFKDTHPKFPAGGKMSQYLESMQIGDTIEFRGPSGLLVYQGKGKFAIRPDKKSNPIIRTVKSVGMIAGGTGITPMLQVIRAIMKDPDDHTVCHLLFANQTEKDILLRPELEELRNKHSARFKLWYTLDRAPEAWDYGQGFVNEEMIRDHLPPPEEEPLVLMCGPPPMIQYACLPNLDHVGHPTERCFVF

Homo sapiens = species on record: Homo sapiens; experiment: Reduction in systolic blood pressure in patient with acute decompensated heart failure during phase II clinical trial; type: functional

## O=c1cc(CS[C@@H]2Nc3ccccc3O2)[nH]c(=S)[nH]1
[1]
  inhibition: < 75%
[2]
  inhibition: Active
[3]
  inhibition: inactive
[4]
  inhibition: Active
[5]
  inhibition: inactive
Mus musculus [6]
  Activity: Active
Mus musculus [7]
  Activity: Active
Mus musculus [8]
  Activity: Active

## Oc1cc(CSc2ccccc2)nc(S)n1
[9]
  inhibition: > 80%

## O=C(O)CCCCN(CCc1ccccc1OCc1ccc(CCc2ccccc2)cc1)Cc1ccc(C(=O)O)cc1
Homo sapiens
  Activity: 16.6 mmHg
